Measurements: paper PMC10494213 (iScience, 2023)
Entries after “also recorded” stand apart in the source; their conditions may differ.

Key:
acetylcholine (ACh) = experiment: ACh level in whole zebrafish by ELISA after 7-day CMZ exposure; format: in vivo; settings: 7-day exposure 1, 10, 100, 1000 μg/L vs control group
[1] = system: acetylcholinesterase (AChE); experiment: AChE in whole zebrafish by ELISA after 7-day CMZ exposure; format: in vivo; settings: 7-day exposure 1, 10, 100, 1000 μg/L vs control group
[2] = Measured fish plasma concentration; format: in vivo, zebrafish (Danio rerio); settings: for Measured FPC/Predicted FPC / Measured FPC: 7-day exposure; for Measured FPC: mean ± SD, n = 3
abat = experiment: Real-time PCR of neurotransmitter-related gene abat; format: in vivo, zebrafish; settings: seven days, four concentrations (1, 10, 100, 1000 μg/L) vs control, p<0.05
spermatozoa = settings: 2.0 and 20 mg/L; cited from earlier work
[3] = system: gamma-aminobutyric acid (GABA); experiment: GABA level in whole zebrafish by ELISA after 7-day CMZ exposure; format: in vivo; settings: seven days of CMZ exposure vs control group (p<0.05; 1000 μg/L p<0.01)
zebrafish larvae = experiment: Zebrafish larval motor behavior; format: in vivo; settings: 7 days exposure
[4] = cited from earlier work
Glu = settings: zebrafish embryos, CMZ 1, 10, 100 μg/L; cited from earlier work
glutamic acid (Glu) = experiment: Glu level in whole zebrafish by ELISA after 7-day CMZ exposure; format: in vivo; settings: seven days of CMZ exposure vs control group (p<0.05; 1000 μg/L p<0.01)
[5] = system: zebrafish embryos and larvae; settings: 1 μg/L; cited from earlier work
GABA = settings: zebrafish embryos, CMZ 1, 10, 100 μg/L; cited from earlier work
[6] = human; cited from earlier work
[7] = Uptake of CMZ in zebrafish muscle during 7-day water exposure; format: in vivo, zebrafish (Danio rerio); settings: male, other: water exposure (waterborne); for concentration at 7 d: muscle; for Kp at 7 d: muscle/plasma
AChE = settings: muscle (10000 μg/L) and head (10 and 10000 μg/L), exposure of 63 days, p<0.05; cited from earlier work
[8] = carp, Coote natural Marsh in Canada; cited from earlier work
[9] = EEC 3, 10, 30 μg/L; cited from earlier work
fish = settings: cited from earlier work

NC(=O)N1c2ccccc2C=Cc2ccccc21 [CMZ, Carbamazepine]
level of ACh (acetylcholine (ACh)): gradually decreased; also recorded: significantly decreased | level of AChE [1]: gradually decreased; also recorded: significantly decreased | Measured FPC/Predicted FPC ([2]; external 1 μg/L): 1.84 ± 0.27 | Measured FPC ([2]; external 1 μg/L (nominal)): 25.47 ± 3.78 µg/L | Measured FPC ([2]; external 10 μg/L (nominal)): 1311.10 ± 80.26 µg/L | Measured FPC/Predicted FPC ([2]; external 100 μg/L): 2.14 ± 0.08 | Measured FPC ([2]; external 100 μg/L (nominal)): 2953.30 ± 109.20 µg/L | Measured FPC/Predicted FPC ([2]; external 1000 μg/L): 0.31 ± 0.01 | measured FPC value as share of the predicted value ([2]; external 1000 μg/L): 31.05% | concentration at 7 d ([2]; male, AB, zebrafish, plasma, other: water exposure (waterborne), corresponding FPCs, low ambient exposure 1 and 10 μg/L): 25.5 to 1310 ng/mL | ER values ([2]; ratio of HTPC and FSSPC, Equation 3, all exposure concentrations): < 1000 | expression of the abat gene (abat): significantly down-regulated | percentage of spermatozoa motile and velocity (spermatozoa): significantly reduce | GABA level [3]: appreciably increased | total movement distance of the larvae (zebrafish larvae; 1000 μg/L, p<0.05): significantly higher than that of the control group | total distance traveled by larvae (zebrafish larvae; 1, 10, 100 μg/L, p>0.05): slightly lower than that of the control group, but there was no significant difference | Dlipw ([4]; pH 7.4, ref http://www.chemspider.com/Chemical): 2.92 | Glu concentration (Glu): reduced | Glu level (glutamic acid (Glu)): appreciably increased | movement and rest percentage of zebrafish embryos and larvae [5]: significantly affected | GABA concentration (GABA): increased | maximum HTPC [6]: 12 mg/L | concentration at 7 d ([7]; 10 μg/L): 35.4 ± 7.9 ng/g | concentration at 7 d ([7]; 100 μg/L): 420 ± 77.5 ng/g | concentration at 7 d ([7]; 1000 μg/L): 2330 ± 127 ng/g | Kp at 7 d ([7]; 10 μg/L): 0.26 ± 0.06 | Kp at 7 d ([7]; 100 μg/L): 0.14 ± 0.03 | Kp at 7 d ([7]; 1000 μg/L): 0.54 ± 0.03 | AChE activity (AChE): considerably increased

CCN(CC)C(=O)c1cccc(C)c1 [N,N-diethyl-m-toluamide]
measured BCFs relative to the predicted BCFs [8]: ≤ 3 times

CCC(=O)OCC(=O)[C@@]1(OC(=O)CC)[C@@H](C)C[C@H]2[C@@H]3CCC4=CC(=O)C=C[C@]4(C)[C@@]3(Cl)[C@@H](O)C[C@@]21C [Beclomethasone Dipropionate, beclomethasone dipropionate]
log Kow [4]: 3.69

O=C(Nc1ccc(Cl)cc1)Nc1ccc(Cl)c(Cl)c1 [triclocarban]
measured BCFs relative to the predicted BCFs [8]: ≤ 3 times

O=C1NC(=O)C(c2ccccc2)(c2ccccc2)N1 [phenytoin]
measured BCFs relative to the predicted BCFs [8]: ≤ 3 times

CN[C@H]1CC[C@@H](c2ccc(Cl)c(Cl)c2)c2ccccc21 [Sertraline]
Predicted FPC vs Measured FPC [9]: very close | shelter-seeking behavior (fish; when the FPC exceeded the human therapeutic threshold): statistically significant reductions

O=C1Nc2ccc(Cl)cc2C(c2ccccc2)=NC1O (stereo not shown) [Oxazepam]
behavior in the novel tank diving test (fish; fish exposed to 4.7 μg/L): statistically significant behavioral effect

C#C[C@]1(O)CC[C@H]2[C@@H]3CCC4=CC(=O)CC[C@@H]4[C@H]3CC[C@@]21CC [Levonorgestrel]
log Kow [4]: 3.72
